# From patent publication US9247759B2, “Identification of human T2R receptors that respond to bitter compounds that elicit the bitter taste in compositions, and the use thereof in assays to identify compounds that inhibit (block) bitter taste in compositions and use thereof” (SENOMYX, INC., priority 2007, dated 2016)
# Like-named read-outs stand apart in the source and are kept apart here.
# Experiments:
# [1] = target: hT2R13 (Homo sapiens (Human), UniProt Q9NYV9); assay: hT2R panel inhibition, transient HEK293 G16g44, agonist Oxyphenonium 1 mM; assay type: cell-based; details: HEK293, compound at 25 μM
# Chain of hT2R13 (Q9NYV9 whole entry): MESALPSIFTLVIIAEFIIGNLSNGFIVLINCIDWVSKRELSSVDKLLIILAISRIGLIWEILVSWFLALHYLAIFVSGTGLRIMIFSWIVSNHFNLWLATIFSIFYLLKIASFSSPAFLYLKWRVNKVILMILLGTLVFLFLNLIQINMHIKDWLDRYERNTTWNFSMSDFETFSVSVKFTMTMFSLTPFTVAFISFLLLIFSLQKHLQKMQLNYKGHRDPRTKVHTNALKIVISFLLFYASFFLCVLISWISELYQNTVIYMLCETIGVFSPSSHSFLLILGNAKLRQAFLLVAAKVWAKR
# Procedure: Specifically, in order to evaluate the inhibitory selectivity of the Compound C compound, this compound was tested against 22 human T2Rs which were deorphaned by Senomyx. These receptors and the bitter ligands that activate these human T2Rs are reported in earlier patent applications which are incorporated by reference herein. These 22 human T2Rs are hT2R1, 3, 4, 5, 7, 8, 9, 10, 13, 14, 16, 44, 51, 54, 55, 61, 63, 64, 65, 67, 71 and 75. The amino acid and nucleic acid sequences of all of these T2Rs may be found in these earlier patent applications. These human T2Rs were each individually transiently transfected into HEK293 cells that stably express the promiscuous G protein G16g44 and functional assays were effected using these receptors as disclosed in these same patent applications. […] The ligands were used at EC80 concentration levels. The list of bitter ligands utilized and the tested ligand concentrations are contained in Table 5 of this example.
# Relating to the foregoing, FIG. 5 contains experimental results wherein Compound C was tested with different agonist compounds. The inhibition activity is represented by the reduction of receptor activity in the presence of Compound C. […] These 13 hT2Rs are hT2R3, 7, 10, 14, 16, 44, 51, 55, 61, 63, 64, 65, and 71.
# [2] = test system: hT2R63; assay: hT2R panel inhibition, transient HEK293 G16g44, agonist Caffeine 1 mM or Andrographolide 100 μM; assay type: cell-based, human; details: compound at 25 μM
# Procedure, shortened: (§1)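 Receptor activity was measured in functional assays after single-receptor transient transfection; bitter agonists were used at their EC80 levels. A decrease in that activity when the test compound was added was taken as inhibition.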
# [3] = test system: hT2R44; assay: hT2R panel inhibition, transient HEK293 G16g44, agonist Denatonium 0.5 μM; assay type: cell-based, human; details: compound at 25 μM
# Procedure, shortened: as §1
# [4] = target: hT2R51 (Homo sapiens (Human), UniProt P59533); assay: hT2R panel inhibition, transient HEK293 G16g44, agonist Prop 2.5 μM; assay type: cell-based; details: HEK293, compound at 25 μM; receptor activated to EC80 with agonist; read-out: inhibition of bitter receptor 51
# Chain of hT2R51 (P59533 whole entry): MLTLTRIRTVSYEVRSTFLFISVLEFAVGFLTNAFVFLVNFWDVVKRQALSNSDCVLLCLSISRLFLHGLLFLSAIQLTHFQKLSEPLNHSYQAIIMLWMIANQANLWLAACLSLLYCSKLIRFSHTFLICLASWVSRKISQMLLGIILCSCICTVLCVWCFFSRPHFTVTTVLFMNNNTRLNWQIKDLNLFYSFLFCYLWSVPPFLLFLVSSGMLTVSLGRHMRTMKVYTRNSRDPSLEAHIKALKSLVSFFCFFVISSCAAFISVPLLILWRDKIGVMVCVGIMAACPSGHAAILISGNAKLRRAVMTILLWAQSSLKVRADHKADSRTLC
# Procedure, shortened: as §1
# [5] = test system: hT2R54; assay: hT2R panel inhibition, transient HEK293 G16g44, agonist Ranitidine 5 mM; assay type: cell-based, human; details: compound at 25 μM; receptor activated to EC80 with agonist
# Procedure, shortened: as §1
# [6] = target: hT2R14 (Homo sapiens (Human), UniProt Q9NYV8); assay: hT2R panel inhibition, transient HEK293 G16g44, agonist Aristolochic Acid 2 μM; assay type: cell-based; details: HEK293, compound at 25 μM
# Chain of hT2R14 (Q9NYV8 whole entry): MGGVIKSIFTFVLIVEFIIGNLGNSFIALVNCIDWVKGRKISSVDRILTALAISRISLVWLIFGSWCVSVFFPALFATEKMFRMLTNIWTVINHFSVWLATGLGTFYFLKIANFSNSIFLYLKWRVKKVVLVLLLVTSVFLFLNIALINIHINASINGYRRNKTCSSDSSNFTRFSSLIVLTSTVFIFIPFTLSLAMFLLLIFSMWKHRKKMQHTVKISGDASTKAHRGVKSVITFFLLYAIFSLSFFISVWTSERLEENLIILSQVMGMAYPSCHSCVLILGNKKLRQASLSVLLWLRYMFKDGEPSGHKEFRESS
# Procedure, shortened: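 Each hT2R was transiently transfected into HEK293 cells stably expressing G16g44 and assayed functionally for inhibition of agonist response. Agonists were applied at EC80: andrographolide at 0.5 mM for hT2R8 and aristolochic acid at 2 μM for hT2R14.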
# [7] = target: hT2R3 (Homo sapiens (Human), UniProt Q9NYW6); assay: hT2R panel inhibition, transient HEK293 G16g44, agonist Chloroquine pH6.5 50 μM; assay type: cell-based; details: HEK293, compound at 25 μM
# Chain of hT2R3 (Q9NYW6 whole entry): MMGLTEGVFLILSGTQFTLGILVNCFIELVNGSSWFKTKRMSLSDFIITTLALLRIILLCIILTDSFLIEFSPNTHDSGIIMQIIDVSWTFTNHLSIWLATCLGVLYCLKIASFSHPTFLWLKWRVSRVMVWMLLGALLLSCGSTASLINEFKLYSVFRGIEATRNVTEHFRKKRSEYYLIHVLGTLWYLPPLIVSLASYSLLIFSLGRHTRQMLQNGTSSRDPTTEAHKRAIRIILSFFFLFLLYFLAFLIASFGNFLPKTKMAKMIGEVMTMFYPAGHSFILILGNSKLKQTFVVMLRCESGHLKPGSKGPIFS
# Procedure, shortened: as §1
# [8] = target: hT2R4 (Homo sapiens (Human), UniProt Q9NYW5); assay: hT2R panel inhibition, transient HEK293 G16g44, agonist Chloroquine pH6.5 5 mM; assay type: cell-based; details: HEK293, compound at 25 μM
# Chain of hT2R4 (Q9NYW5 whole entry): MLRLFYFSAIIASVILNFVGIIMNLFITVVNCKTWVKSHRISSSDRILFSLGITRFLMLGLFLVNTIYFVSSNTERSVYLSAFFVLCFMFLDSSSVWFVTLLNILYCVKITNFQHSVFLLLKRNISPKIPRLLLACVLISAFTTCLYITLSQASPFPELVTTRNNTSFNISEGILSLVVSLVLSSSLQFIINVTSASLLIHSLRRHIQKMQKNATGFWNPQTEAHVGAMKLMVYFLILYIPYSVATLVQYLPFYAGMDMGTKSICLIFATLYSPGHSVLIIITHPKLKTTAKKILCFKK
# Procedure, shortened: as §1
# [9] = target: hT2R64 (Homo sapiens (Human), UniProt P59538); assay: hT2R panel inhibition, transient HEK293 G16g44, agonist Aristolochic Acid 1 μM; assay type: cell-based; details: HEK293, compound at 25 μM
# Chain of hT2R64 (P59538 whole entry): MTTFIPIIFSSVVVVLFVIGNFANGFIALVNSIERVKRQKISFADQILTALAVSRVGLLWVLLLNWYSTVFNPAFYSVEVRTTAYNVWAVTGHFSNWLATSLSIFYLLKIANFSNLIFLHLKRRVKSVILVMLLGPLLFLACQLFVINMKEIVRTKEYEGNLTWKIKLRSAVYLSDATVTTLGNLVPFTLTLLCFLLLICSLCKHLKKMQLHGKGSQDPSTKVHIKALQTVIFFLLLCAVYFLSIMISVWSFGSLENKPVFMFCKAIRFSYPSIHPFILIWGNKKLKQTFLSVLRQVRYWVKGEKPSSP
# Procedure, shortened: as §1
# [10] = test system: hT2R55; assay: hT2R panel inhibition, transient HEK293 G16g44, agonist Cinchonine 150 μM; assay type: cell-based, human; details: compound at 25 μM
# Procedure, shortened: as §1
# [11] = target: hT2R61 (Homo sapiens (Human), UniProt P59537); assay: hT2R panel inhibition, transient HEK293 G16g44, agonist Aristolochic Acid 25 nM; assay type: cell-based; details: HEK293, compound at 25 μM
# Chain of hT2R61 (P59537 whole entry): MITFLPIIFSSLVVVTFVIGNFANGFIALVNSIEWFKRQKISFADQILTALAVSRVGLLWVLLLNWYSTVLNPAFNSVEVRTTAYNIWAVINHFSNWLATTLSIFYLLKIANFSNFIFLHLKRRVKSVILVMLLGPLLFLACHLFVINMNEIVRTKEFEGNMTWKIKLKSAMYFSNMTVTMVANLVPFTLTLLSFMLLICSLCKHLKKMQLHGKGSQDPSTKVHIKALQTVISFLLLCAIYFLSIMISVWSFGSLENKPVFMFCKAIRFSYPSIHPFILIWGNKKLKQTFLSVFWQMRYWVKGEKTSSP
# Procedure, shortened: as §1
# [12] = target: hT2R10 (Homo sapiens (Human), UniProt Q9NYW0); assay: hT2R panel inhibition, transient HEK293 G16g44, agonist Strychnine 50 μM; assay type: cell-based; details: HEK293, read-out: inhibition of bitter receptor 10, compound at 25 μM; receptor activated to EC80 with agonist
# Chain of hT2R10 (Q9NYW0 whole entry): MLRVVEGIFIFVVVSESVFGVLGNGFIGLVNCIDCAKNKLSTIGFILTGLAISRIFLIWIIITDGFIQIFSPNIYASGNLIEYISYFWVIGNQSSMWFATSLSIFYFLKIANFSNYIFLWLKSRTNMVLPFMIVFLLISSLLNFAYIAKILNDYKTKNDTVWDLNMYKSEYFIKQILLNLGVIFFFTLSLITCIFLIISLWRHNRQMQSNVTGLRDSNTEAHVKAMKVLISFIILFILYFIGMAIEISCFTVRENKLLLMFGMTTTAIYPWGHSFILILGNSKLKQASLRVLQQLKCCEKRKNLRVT
# [13] = target: hT2R16 (Homo sapiens (Human), UniProt Q9NYV7); assay: hT2R panel inhibition, transient HEK293 G16g44, agonist Salicin 1 mM; assay type: cell-based; details: HEK293, compound at 25 μM
# Chain of hT2R16 (Q9NYV7 whole entry): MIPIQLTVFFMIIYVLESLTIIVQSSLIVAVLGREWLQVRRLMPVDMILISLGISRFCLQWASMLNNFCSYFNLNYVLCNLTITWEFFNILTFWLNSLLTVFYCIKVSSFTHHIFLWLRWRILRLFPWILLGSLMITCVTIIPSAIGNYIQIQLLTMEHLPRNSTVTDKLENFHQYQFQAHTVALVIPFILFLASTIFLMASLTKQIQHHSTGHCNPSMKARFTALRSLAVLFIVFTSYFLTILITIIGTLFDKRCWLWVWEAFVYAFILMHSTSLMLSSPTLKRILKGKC
# Procedure, shortened: as §1
# [14] = test system: hT2R65; assay: hT2R panel inhibition, transient HEK293 G16g44, agonist Oleuropein 1 mM; assay type: cell-based, human; details: compound at 25 μM
# Procedure, shortened: as §1
# [15] = target: hT2R71 (Homo sapiens (Human), UniProt P59536); assay: hT2R panel inhibition, transient HEK293 G16g44, agonist Picric Acid 10 μM; assay type: cell-based; details: HEK293, compound at 25 μM
# Chain of hT2R71 (P59536 whole entry): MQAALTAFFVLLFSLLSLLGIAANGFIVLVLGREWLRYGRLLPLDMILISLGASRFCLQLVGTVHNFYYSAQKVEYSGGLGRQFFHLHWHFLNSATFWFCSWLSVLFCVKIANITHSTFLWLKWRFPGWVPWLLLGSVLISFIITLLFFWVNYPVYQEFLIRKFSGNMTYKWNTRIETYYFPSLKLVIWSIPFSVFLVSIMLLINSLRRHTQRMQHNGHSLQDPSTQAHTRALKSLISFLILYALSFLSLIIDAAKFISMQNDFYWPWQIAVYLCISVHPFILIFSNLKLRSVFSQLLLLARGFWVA
# Procedure, shortened: as §1
# [16] = target: hT2R7 (Homo sapiens (Human), UniProt Q9NYW3); assay: hT2R panel inhibition, transient HEK293 G16g44, agonist Chloroquine pH6.5 10 mM; assay type: cell-based; details: HEK293, compound at 25 μM; receptor activated to EC80 with agonist; read-out: inhibition of bitter receptor 7
# Chain of hT2R7 (Q9NYW3 whole entry): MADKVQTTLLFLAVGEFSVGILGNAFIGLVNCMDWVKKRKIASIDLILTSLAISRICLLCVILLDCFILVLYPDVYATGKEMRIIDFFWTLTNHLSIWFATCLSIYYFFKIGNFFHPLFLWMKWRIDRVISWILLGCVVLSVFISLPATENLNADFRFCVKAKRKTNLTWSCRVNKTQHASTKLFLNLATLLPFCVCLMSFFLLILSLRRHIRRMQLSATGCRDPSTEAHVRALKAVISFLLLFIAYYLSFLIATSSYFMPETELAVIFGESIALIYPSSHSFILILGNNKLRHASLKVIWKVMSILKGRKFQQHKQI
# Procedure, shortened: as §1
# [17] = test system: hT2R67; assay: hT2R panel inhibition, transient HEK293 G16g44, agonist Andrographolide 5 μM; assay type: cell-based, human; details: compound at 25 μM
# Procedure, shortened: as §1
# [18] = receptor activated to EC80 with agonist
# [19] = receptor activated to EC80 with the corresponding agonist
structure (smiles),measurement,setting,value
"CCCOc1ccc(CN(Cc2ccccc2)S(=O)(=O)c2ccc(C(=O)O)cc2)cc1 [Example 5-109, 4-(N-benzyl-N-(4-propoxybenzyl)sulfamoyl)benzoic acid]",inhibition at 25 µM,"[1]; receptor activated to EC80 with agonist, read-out: inhibition of bitter receptor 13",20 to 40%
same,inhibition of bitter receptor 63,[2]; [18],++ (40% to 60% inhibition = ++)
same,inhibition of bitter receptor 44,[3]; [18],++ (40% to 60% inhibition = ++)
same,inhibition at 25 µM,[4],40 to 60%
same,inhibition of bitter receptor 54,[5],+ (20% to 40% inhibition = +)
same,inhibition at 25 µM,"[6]; receptor activated to EC80 with agonist, read-out: inhibition of bitter receptor 14",> 80%
same,inhibition at 25 µM,"[7]; receptor activated to EC80 with agonist, read-out: inhibition of bitter receptor 3",40 to 60%
same,inhibition at 25 µM,"[8]; receptor activated to EC80 with agonist, read-out: inhibition of bitter receptor 4",40 to 60%
same,inhibition at 25 µM,"[9]; receptor activated to EC80 with agonist, read-out: inhibition of bitter receptor 64",> 80%
same,inhibition of bitter receptor 55,[10]; [18],++++ (80% or greater inhibition = ++++)
same,inhibition at 25 µM,"[11]; receptor activated to EC80 with agonist, read-out: inhibition of bitter receptor 61",60 to 80%
same,inhibition at 25 µM,[12],40 to 60%
same,inhibition at 25 µM,"[13]; receptor activated to EC80 with agonist, read-out: inhibition of bitter receptor 16",20 to 40%
same,inhibition of bitter receptor 65,[14]; [18],+++ (60% to 80% inhibition = +++)
same,inhibition at 25 µM,"[15]; receptor activated to EC80 with agonist, read-out: inhibition of bitter receptor 71",60 to 80%
same,inhibition at 25 µM,[16],20 to 40%
same,inhibition of bitter receptor 67,[17]; [18],+ (20% to 40% inhibition = +)
"COc1ccc(CN(C2CCCc3ccccc32)S(=O)(=O)c2ccc(C(=O)O)cc2)cc1 (stereo not drawn) [Example 5-96, 4-(N-(4-methoxybenzyl)-N-(1,2,3,4-tetrahydronaphthalen-1-yl)sulfamoyl)benzoic acid]",inhibition at 25 µM,"[1]; receptor activated to EC80 with the corresponding agonist, read-out: screening result against bitter receptor 13",20 to 40%
same,screening result against bitter receptor 63,[2]; [19],++++ (80% or greater inhibition = ++++)
same,screening result against bitter receptor 44,[3]; [19],+++ (60% to 80% inhibition = +++)
same,inhibition at 25 µM,"[6]; receptor activated to EC80 with the corresponding agonist, read-out: screening result against bitter receptor 14",> 80%
same,inhibition at 25 µM,"[7]; receptor activated to EC80 with the corresponding agonist, read-out: screening result against bitter receptor 3",20 to 40%
same,inhibition at 25 µM,"[8]; receptor activated to EC80 with the corresponding agonist, class symbols, read-out: screening result against bitter receptor 4",20 to 40%
same,inhibition at 25 µM,"[9]; receptor activated to EC80 with the corresponding agonist, read-out: screening result against bitter receptor 64",60 to 80%
same,screening result against bitter receptor 55,[10]; [19],++++ (80% or greater inhibition = ++++)
same,inhibition at 25 µM,"[11]; receptor activated to EC80 with the corresponding agonist, read-out: screening result against bitter receptor 61",> 80%
same,inhibition at 25 µM,"[13]; receptor activated to EC80 with the corresponding agonist, read-out: screening result against bitter receptor 16",20 to 40%
same,screening result against bitter receptor 65,[14]; [19],++++ (80% or greater inhibition = ++++)
same,inhibition at 25 µM,"[15]; receptor activated to EC80 with the corresponding agonist, read-out: screening result against bitter receptor 71",40 to 60%
same,screening result against bitter receptor 67,[17]; [19],+ (20% to 40% inhibition = +)
